Data from US20180092393A1, “IRON NICOTINATE COMPOSITION” (NESTEC S.A., priority 2015, published 2018).

Conditions: colour difference vs product with no iron salts; approximately 2.1 mg iron per 100 g; flash pasteurized at 3.05° C. for 2 minutes; 47.3% banana puree
Protocol: Colour measurements were performed in 1×1 cm polystyrene cuvettes using an X-Rite ColorEye 7000A colorimeter. The colorimeter was set up with a D65 light source, 3.0 degree observer angle and with specular component included. The colour difference between the product with no iron salts and the iron fortified product was measured for each iron salt and expressed as ΔEab* using the CIELAB colour scale.

O=S(=O)([O-])[O-].[Fe+2] [Ferrous sulphate]
ΔEab*: 3.26
